A value given as a limit tells only on which side of the number the result lay.

Assay [1] concerns MIA PaCa-2 human pancreatic carcinoma. In words: MIA PaCa-2 CCK-8 proliferation assay. It counts as cell-based. The following applies: MIA PaCa-2 cells. The essentials: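 Compounds were tested as a 3-fold series from 20 μM down to 1.02 nM in CCK-8 absorbance assays. The lines used were NCI-H23 and NCI-H358, each with 1 KRAS(G12C) copy, and MIA PaCa-2 with 2 copies. Inhibition was derived relative to DMSO controls, with a no-cell blank subtracted.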

For assay [2], the target named is T1, KRAS(G12C) (Homo sapiens, UniProt P01116, G12C). In words: KRAS(G12C)/SOS1 homogeneous time-resolved fluorescence (HTRF) assay. On the set-up: purchased Cisbio 63ADK000CB16PEG. As to conditions: absence of GTP, 4° C. for 3 hr, read-out: KRAS (G12C) binding. The essentials: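 Three-hour incubation at 4 °C of 3-fold compound dilutions (lowest 1.02 nM) with KRAS(G12C), SOS1 and detection reagents, GTP absent. Disruption of the KRAS(G12C)/SOS1 complex detected by time-resolved fluorescence.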

The target of assay [3] is T1, KRAS(G12C). In words: KRAS(G12C) Western blot protein degradation assay in LU65A cells. It counts as cell-based. On the set-up: LU65A human lung cancer cell line, which expresses KRAS(G12C); host or cells: LU65A. As to conditions: 6 hr. In a few lines:
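KRAS levels read by fluorescent Western blot (β-actin as reference) on BCA-normalized lysates. Exposure to a compound concentration range at 37 °C lasted 6 hr in LU65A and 48 hr in MIA PaCa-2; DC50 taken as half-maximal degradation concentration.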

`C=C(F)C(=O)N1CCN(c2nc(OC[C@@H]3CC[C@H](CN4CCN(Cc5ccc(-n6c(C(=O)NCC)nnc6-c6cc(C(C)C)c(O)cc6O)cc5)CC4)N3C)nc3c2CCN(c2cccc4ccccc24)C3)C[C@@H]1CC#N` [Compound 287, 4-{4-[(4-{[(2R,5S)-5-[({4-[(3S)-3-(cyanomethyl)-4-(2-fluoroprop-2-enoyl)piperazin-1-yl]-7-(naphthalen-1-yl)-5H,6H,8H-pyrido[3,4-d]pyrimidin-2-yl}oxy)methyl]-1-methylpyrrolidin-2-yl]methyl}piperazin-1-yl)methyl]phenyl}-5-(2,4-dihydroxy-5-isopropylphenyl)-N-ethyl-1,2,4-triazole-3-carboxamide]: in assay [1] (Homo sapiens, MIA PaCa-2, 72 h), the half-maximal effective concentration (EC50) is less than 100 nM. Also, the IC50 in assay [2] lay within 100 to 1000 nM. In assay [3], the DC50 was more than 1000 nM.
For the compound `C=CC(=O)N1CCN(c2nc(OC[C@@H]3CC[C@H](CN4CCN(Cc5ccc(-n6c(C(=O)NCC)nnc6-c6cc(C(C)C)c(O)cc6O)cc5)CC4)N3C)nc3c2CCN(c2cccc4ccccc24)C3)C[C@@H]1CC#N` [Compound 288, 4-{4-[(4-{[(2R,5S)-5-[({4-[(3S)-3-(cyanomethyl)-4-(prop-2-enoyl)piperazin-1-yl]-7-(naphthalen-1-yl)-5H,6H,8H-pyrido[3,4-d]pyrimidin-2-yl}oxy)methyl]-1-methylpyrrolidin-2-yl]methyl}piperazin-1-yl)methyl]phenyl}-5-(2,4-dihydroxy-5-isopropylphenyl)-N-ethyl-1,2,4-triazole-3-carboxamide], in assay [1] (Homo sapiens, MIA PaCa-2, 72 h), the EC50 is less than 100 nM. The IC50 in assay [2] was less than 100 nM. This compound returned a DC50 in assay [3] of more than 1000 nM.
Regarding `C=CC(=O)N1CCN(c2nc(OC[C@@H]3CC[C@H](CN4CCN(Cc5ccc(-n6c(C(=O)NCC)nnc6-c6cc(C(C)C)c(O)cc6O)cc5)CC4)N3C)nc3c2CCN(c2cccc4cccc(C)c24)C3)C[C@@H]1CC#N` [Compound 289, 4-{4-[(4-{[(2R,5S)-5-[({4-[(3S)-3-(cyanomethyl)-4-(prop-2-enoyl)piperazin-1-yl]-7-(8-methylnaphthalen-1-yl)-5H,6H,8H-pyrido[3,4-d]pyrimidin-2-yl}oxy)methyl]-1-methylpyrrolidin-2-yl]methyl}piperazin-1-yl)methyl]phenyl}-5-(2,4-dihydroxy-5-isopropylphenyl)-N-ethyl-1,2,4-triazole-3-carboxamide], in assay [1] (Homo sapiens, MIA PaCa-2, 72 h), the concentration for a half-maximal effect (EC50) is less than 100 nM. Further, the IC50 in assay [2] was less than 100 nM. Also, the half-maximal degradation concentration (DC50) in assay [3] was more than 1000 nM.
On to `C=CC(=O)N1CCN(c2nc(OC[C@@H]3C[C@H](N4CCN(CC5CCN(Cc6ccc7c(c6)CN(C(=O)c6cc(C(C)C)c(O)cc6O)C7)CC5)CC4)CN3C)nc3c2CCN(c2cccc4cccc(Cl)c24)C3)C[C@@H]1CC#N` [Compound 290, 2-[(2S)-4-[7-(8-chloronaphthalen-1-yl)-2-{[(2S,4S)-4-{4-[(1-{[2-(2,4-dihydroxy-5-isopropylbenzoyl)-1,3-dihydroisoindol-5-yl]methyl}piperidin-4-yl)methyl]piperazin-1-yl}-1-methylpyrrolidin-2-yl]methoxy}-5H,6H,8H-pyrido[3,4-d]pyrimidin-4-yl]-1-(prop-2-enoyl)piperazin-2-yl]acetonitrile], for which the half-maximal effective concentration (EC50) in assay [1] (Homo sapiens, MIA PaCa-2, 72 h) is less than 100 nM. The IC50 in assay [2] is less than 100 nM. The compound further came in with a DC50 in assay [3] of more than 1000 nM.
Compound “(S)-4-(4-((4-(1-(2-((4-(4-acryloyl-3-(cyanomethyl)piperazin-1-yl)-7-(8-chloronaphthalen-1-yl)-5,6,7,8-tetrahydropyrido[3,4-d]pyrimidin-2-yl)oxy)ethyl)piperidine-4-carbonyl)piperazin-1-yl)methyl)phenyl)-5-(2,4-dihydroxy-5-methylphenyl)-N-(2,2,2-trifluoroethyl)-4H-1,2,4-triazole-3-carboxamide [Compound 257]” displayed an EC50 in assay [1] (72 hr) of 100 to 1000 nM. Further, the IC50 in assay [2] is less than 100 nM. For the same compound, the half-maximal degradation concentration (DC50) in assay [3] was 100 to 1000 nM.

Values taken from patent publication US20230391772A1, “METHODS AND COMPOSITIONS FOR TARGETED PROTEIN DEGRADATION” (Ranok Therapeutics (Hangzhou) Co. Ltd., priority 2020, published 2023).
